Measured values: patent publication US6486201B1, “Agarofuan derivatives, their preparation, pharmaceutical composition containing them and their use as medicine” (Institute of Materia Medica, Chinese Academy of Medical …, priority 1998, dated 2002)
Blank lines part the entries; values can stand above or below the molecule they belong to.

Experiments:
Wistar rats [1] = experiment: Social interaction test on rats; assay type: in vivo, rat; conditions: mean ± SD; for total time of interaction, 0-9 (minutes): high illuminance unfamiliar conditions (HU); for interaction time (sec. in 9 min): 2 mg/kg ip, HU
Procedure: The rats (Wistar, 160±20 g) for experiment were individually housed in chambers (55×55×40 cm), and handling adaptability and injection training were carried out twice a day 2 weeks before experiment. One day before experiment, the rats were weighed, labeled and grouped at random in pairs but still separated-until experiment. In experiment, 8 pairs of rats were given AF-5 in 2% lecithin (2% lecithin as control), and the total time of interaction was recorded including smelling, licking, leaning against, grabbing, chasing, biting, following, kicking, hitting etc. The experiment conditions were high illuminance with unfamiliar conditions (HU), low illuminance with unfamiliar conditions, high illuminance with familiar conditions and low illuminance with familiar conditions T-test was used to determine the significance between the test group and control group (Table 3, 4).

Wistar rats [2] = experiment: Elevated plus maze test on rats; assay type: in vivo, rat; conditions: for total time of staying on the opened arm (sec. in 5 min.): in 2% lecithin, n 12
From the text: The elevated plus-maze test has been used by Pellow, S. And File, SE. for anti-anxiety model in rats. It is one of the most widely used models for anxiolytics. The elevated plus maze has two cross arms, one is an opened arm (50*10 cm, length, width), another is a closed arm (50×10×40 cm, length, width, height) and the maze is 50 cm above the floor during experiment. The rat for experiment is put on the opening at the cross point (10×10) of the two arms, and may freely choose to enter either opened or closed arm.
Wistar rats of 160±20 g body weight were used, and divided randomly into 8 groups, 12 in each group. Handling adaptability training was carried out one week before the experiment. In the experiment, AF-5 in 2% lecithin of the doses listed in Table 1 was given to rats which were fasted for 12 hours before experiment. After administration, the rat was put on the center opening of the elevated plus headed to opened arm, and times of entering the opened arm, total time of staying on the opened arm, and times of shuttling inside the closed arm were recorded.

Kunming mice = experiment: Forced swimming test on mice (anti-depression activity); assay type: in vivo, mouse; conditions: for time of immobile phase (sec/4 min): mean ± SD
Procedure: The experiment used Kunming mice of China, male, 18-21 g of body weight. […]
The water in experiment vessel was 12 cm in depth, 12.5 cm in diameter and kept at 26° C. Each mouse was put in the water and forced to swim for 6 min in which total immobile time in the last 4 min was recorded, and the significance between experiment group and control group was tested by T value (Table 5).

Wistar rats [3] = experiment: Elevated plus maze test on rats; assay type: in vivo, rat; conditions: 32 mg/kg ip, in 2% lecithin, mean ± SD, n 4
mice = experiment: Single dose toxicity in mice; assay type: in vivo
From the text: One week alive rate was 100%. The possible durable dosage was 2.4 g/kg by P.O. and two week alive rate was 100% at this dosage.

[4] = 2 mg/kg ip, time 5 minutes, mean ± SE
[5] = 2 mg/kg ip, time 15 minutes, mean ± SE
[6] = 2 mg/kg ip, time 30 minutes, mean ± SE
[7] = 2 mg/kg ip, time 60 minutes, mean ± SE
[8] = 2 mg/kg ip, time 90 minutes, mean ± SE

Structure (SMILES): CCCC[C@]1(O)CCC[C@@]2(C)CC[C@@H]3C[C@@]21OC3(C)C [Example 16, (1R,2S,6S,9R)6,10,10-Trimethyl-2-butyl-2-hydroxy-11-oxatricyclo[7.2.1.0^1,6]dodecane]
melting point: 70 to 72 °C

Structure (SMILES): CC(C)CCC1=CCC[C@@]2(C)CC[C@@H]3C[C@]12OC3(C)C [Example 5, (1R,6S,9R)6,10,10-Trimethyl-2-isopentyl-11-oxatricyclo[7.2.1.0^1,6]dodec-2-ene]
melting point: 38 to 39 °C

Structure (SMILES): CCCC[C@H]1[C@@H](O)CC[C@@]2(C)CC[C@@H]3C[C@]12OC3(C)C [Example 22, (1S,2S,3S,6R,9R)6,10,10-Trimethyl-2-butyl-3-hydroxy-11-oxatricyclo[7.2.1.0^1,6]dodecane]
melting point: 47 to 48 °C

Structure (SMILES): CC(=O)CCC1=CCC[C@@]2(C)CC[C@@H]3C[C@]12OC3(C)C [Example 29, (1R,6S,9R)6,10,10-Trimethyl-2-(3-oxobutyl)-11-oxatricyclo[7.2.1.0^1,6]dodec-2-ene]
melting point: 59 to 62 °C

Structure (SMILES): CC1(C)O[C@]23C[C@H]1CC[C@]2(C)CCC=C3Cc1ccc(Cl)cc1 [Example 10, (1R,6S,9R)6,10,10-Trimethyl-2-(4-chlorobenzyl)-11-oxatricyclo[7.2.1.0^1,6]dodec-2-ene]
melting point: 87 to 88 °C

Structure (SMILES): CCCC[C@H]1C(=O)CC[C@@]2(C)CC[C@@H]3C[C@]12OC3(C)C [Example 23, (1S,2R,6R,9R)6,10,10-Trimethyl-2-butyl-11-oxatricyclo[7.2.1.0^1,6]dodecan-3-one]
melting point: 64 to 66 °C

Structure (SMILES): CCCCC1=CCC[C@@]2(C)CC[C@@H]3C[C@]12OC3(C)C [AF-5, (1R,6S,9R)6,10,10-Trimethyl-2-butyl-11-oxatricyclo[7.2.1.0^1,6]dodec-2-ene]
total time of interaction, 0-9 (minutes) (Wistar rats [1]; 0.125 mg/kg): 1.93 min
total time of interaction, 0-9 (minutes) (Wistar rats [1]; 0.25 mg/kg): 2.28 min
total time of interaction, 0-9 (minutes) (Wistar rats [1]; 0.5 mg/kg): 3.65 min
total time of interaction, 0-9 (minutes) (Wistar rats [1]; 1.0 mg/kg): 4.02 min
interaction time (sec. in 9 min) (Wistar rats [1]; time 5 minutes): 98 sec. in 9 min
interaction time (sec. in 9 min) (Wistar rats [1]; time 15 minutes): 143 sec. in 9 min
interaction time (sec. in 9 min) (Wistar rats [1]; time 30 minutes): 103 sec. in 9 min
interaction time (sec. in 9 min) (Wistar rats [1]; time 60 minutes): 166 sec. in 9 min
interaction time (sec. in 9 min) (Wistar rats [1]; time 90 minutes): 112 sec. in 9 min
total time of interaction, 0-9 (minutes) (Wistar rats [1]; 2.0 mg/kg): 3.25 min
total time of interaction, 0-9 (minutes) (Wistar rats [1]; 4.0 mg/kg): 3.23 min
Times of shuttling (Wistar rats [2]; 0.5 mg/kg ip, 5 min, closed arm, mean ± SD): 2.5
total time of staying on the opened arm (sec. in 5 min.) (Wistar rats [2]; 0.5 mg/kg ip, 5 min, mean ± SD): 23 sec. in 5 min.
Times of shuttling (Wistar rats [2]; 1 mg/kg ip, 5 min, closed arm, mean ± SD): 2.8
total time of staying on the opened arm (sec. in 5 min.) (Wistar rats [2]; 1 mg/kg ip, 5 min, mean ± SD): 25 + sec. in 5 min.
Times of shuttling (Wistar rats [2]; 2 mg/kg ip, 5 min, closed arm, mean ± SD): 2.8
total time of staying on the opened arm (sec. in 5 min.) (Wistar rats [2]; 2 mg/kg ip, 5 min, mean ± SD): 36 sec. in 5 min.
Time in opened arm (Wistar rats [2]; [4]): 4.4
Times of shuttling (Wistar rats [2]; [4]): 3.0
Time in opened arm (Wistar rats [2]; [5]): 6.1
Times of shuttling (Wistar rats [2]; [5]): 4.1
Time in opened arm (Wistar rats [2]; [6]): 7.9
Times of shuttling (Wistar rats [2]; [6]): 6.6
Time in opened arm (Wistar rats [2]; [7]): 20.8
Times of shuttling (Wistar rats [2]; [7]): 5.6
Time in opened arm (Wistar rats [2]; [8]): 1.27
Times of shuttling (Wistar rats [2]; [8]): 3.7
Times of shuttling (Wistar rats [2]; 4 mg/kg ip, 5 min, closed arm, mean ± SD): 2.3
total time of staying on the opened arm (sec. in 5 min.) (Wistar rats [2]; 4 mg/kg ip, 5 min, mean ± SD): 30 sec. in 5 min.
Times of shuttling (Wistar rats [2]; 8 mg/kg ip, 5 min, closed arm, mean ± SD): 1.3
total time of staying on the opened arm (sec. in 5 min.) (Wistar rats [2]; 8 mg/kg ip, 5 min, mean ± SD): 14 sec. in 5 min.
Times of shuttling (Wistar rats [2]; 16 mg/kg ip, 5 min, closed arm, mean ± SD): 4.2
total time of staying on the opened arm (sec. in 5 min.) (Wistar rats [2]; 16 mg/kg ip, 5 min, mean ± SD): 9.8 sec. in 5 min.
Times of shuttling (Wistar rats [2]; 32 mg/kg ip, 5 min, closed arm, mean ± SD): 3.0
anti-anxiety activity in elevated plus maze test (in words) (Wistar rats [2]; rats, dose-effect): antianxiety activity with a wide dosage range
time of immobile phase (sec/4 min) (Kunming mice; P.O. three times a day (24, 5, 0.5 hours before experiment), 0.5 mg/kg): 90 ± 25 sec/4 min
time of immobile phase (sec/4 min) (Kunming mice; P.O. three times a day (24, 5, 0.5 hours before experiment), 1.5 mg/kg): 60 ± 30 sec/4 min
time of immobile phase (sec/4 min) (Kunming mice; P.O. three times a day (24, 5, 0.5 hours before experiment), 5.0 mg/kg): 83 ± 35 sec/4 min
time of immobile phase (sec/4 min) (Kunming mice; P.O. three times a day (24, 5, 0.5 hours before experiment), 15.0 mg/kg): 74 ± 41 sec/4 min
time of immobile phase (sec/4 min) (Kunming mice; P.O., s.i.d. × 21 days, 5.0 mg/kg): 84 ± 41 sec/4 min
time of immobile phase (sec/4 min) (Kunming mice; P.O., s.i.d. × 21 days, 7.5 mg/kg): 69 ± 45 sec/4 min
time of immobile phase (sec/4 min) (Kunming mice; P.O., s.i.d. × 21 days, 15.0 mg/kg): 92 ± 66 sec/4 min
time of mobile phase vs. control (in words) (Kunming mice; administration in 21 successive days): prolonged the mobile time significantly
anti-depression activity in forced swimming test (in words) (Kunming mice; mice): has anti-depression activity
time of mobile phase vs. control (in words) (Kunming mice; single dosing 1.5, 5, and 15 mg/kg): did not prolong the time of mobile phase
time of immobile phase (sec/4 min) (Kunming mice; single dosing, P.O., 0.5 hr, 1.5 mg/kg): 93 ± 39 sec/4 min
time of immobile phase (sec/4 min) (Kunming mice; single dosing, P.O., 0.5 hr, 5.0 mg/kg): 101 ± 52 sec/4 min
time of immobile phase (sec/4 min) (Kunming mice; single dosing, P.O., 0.5 hr, 15.0 mg/kg): 97 ± 43 sec/4 min
time of mobile phase vs. control (in words) (Kunming mice; three times a day, 1.5 mg/kg group): showed significance
time of mobile phase vs. control (in words) (Kunming mice; three times a day, 0.5 and 5 mg/kg groups): did not show significance though prolonged the mobile time
total time of staying on the opened arm (sec. in 5 min.) (Wistar rats [3]): 9.6 sec. in 5 min.
observed reactions after single dose (mice; intravenous injection 500 mg, mice): effect of calming, lying down, decreasing alarm reaction and without other abnormal reactions
toxicity in single dose toxicity test (in words) (mice; mice): low toxicity and high safety coefficient
possible durable dosage (mice; mouse, in vivo, po, 2 week): 2.4 g/kg

Other lines, results leading:

melting point: 34 to 36 °C
Structure (SMILES): CC1(C)O[C@]23C[C@H]1CC[C@]2(C)CCC=C3CCO [Example 11, (1R,6S,9R)6,10,10-Trimethyl-2-(2-hydroxyethyl)-11-oxatricyclo[7.2.1.0^1,6]dodec-2-ene]

melting point: 90 to 92 °C
Structure (SMILES): CCCC[C@@]1(O)CCC[C@@]2(C)CC[C@@H]3C[C@@]21OC3(C)C [Example 21, (1R,2R,6S,9R)6,10,10-Trimethyl-2-butyl-2-hydroxy-11-oxatricyclo[7.2.1.0^1,6]dodecane]

melting point: 38 to 39 °C
Structure (SMILES): CC1=C[C@@]23C[C@@H](CC[C@]2(C)CC1)C(C)(C)O3 [Example 32, (1S,6R,9R)3,6,10,10-Tetramethyl-11-oxatricyclo[7.2.1.0^1,6]dodec-2-ene]

melting point: 49 to 50 °C
Structure (SMILES): CC1(C)O[C@]23C[C@H]1CC[C@]2(C)CCC=C3Cc1ccccc1 [Example 7, (1R,6S,9R)6,10,10-Trimethyl-2-benzyl-11-oxatricyclo[7.2.1.0^1,6]dodec-2-ene]

melting point: 131 to 133 °C
Structure (SMILES): CC1(C)O[C@]23C[C@H]1CC[C@]2(C)CCC=C3Cc1ccc(F)cc1 [Example 8, (1R,6S,9R)6,10,10-Trimethyl-2-(4-flurobenzyl)-11-oxatricyclo[7.2.1.0^1,6]dodec-2-ene]

melting point: 68 to 70 °C
Structure (SMILES): CC1(C)O[C@]23C[C@H]1CC[C@]2(C)CC[C@](C)(O)C3 [Example 24, (1S,3S,6R,9R)3,6,10,10-Tetramethyl-3-hydoxy-11-oxatricyclo[7.2.1.0^1,6]dodecane]
